Reference: BigSolDB 2.1

Cc1cc([N+](=O)[O-])ccc1N
solubility (mole fraction) (in 2-butanone, 278.15 K): 0.0846 | solubility (mole fraction) (in 2-butanone, 280.65 K): 0.0899 | solubility (mole fraction) (in 2-butanone, 283.15 K): 0.0955 | solubility (mole fraction) (in 2-butanone, 285.65 K): 0.101 | solubility (mole fraction) (in 2-butanone, 288.15 K): 0.107 | solubility (mole fraction) (in 2-butanone, 290.65 K): 0.114 | solubility (mole fraction) (in 2-butanone, 293.15 K): 0.12 | solubility (mole fraction) (in 2-butanone, 295.65 K): 0.127 | solubility (mole fraction) (in 2-butanone, 298.15 K): 0.134 | solubility (mole fraction) (in 2-butanone, 300.65 K): 0.141 | solubility (mole fraction) (in 2-butanone, 303.15 K): 0.149 | solubility (mole fraction) (in 2-butanone, 305.65 K): 0.157 | solubility (mole fraction) (in 2-butanone, 308.15 K): 0.165 | solubility (mole fraction) (in 2-butanone, 310.65 K): 0.174 | solubility (mole fraction) (in 2-butanone, 313.15 K): 0.183 | solubility (mole fraction) (in acetone, 278.15 K): 0.0764 | solubility (mole fraction) (in acetone, 280.65 K): 0.0815 | solubility (mole fraction) (in acetone, 283.15 K): 0.0875 | solubility (mole fraction) (in acetone, 285.65 K): 0.0933 | solubility (mole fraction) (in acetone, 288.15 K): 0.0996 | solubility (mole fraction) (in acetone, 290.65 K): 0.106 | solubility (mole fraction) (in acetone, 293.15 K): 0.113 | solubility (mole fraction) (in acetone, 295.65 K): 0.12 | solubility (mole fraction) (in acetone, 298.15 K): 0.127 | solubility (mole fraction) (in acetone, 300.65 K): 0.135 | solubility (mole fraction) (in acetone, 303.15 K): 0.142 | solubility (mole fraction) (in acetone, 305.65 K): 0.151 | solubility (mole fraction) (in acetonitrile, 278.15 K): 0.0308 | solubility (mole fraction) (in acetonitrile, 280.65 K): 0.0335 | solubility (mole fraction) (in acetonitrile, 283.15 K): 0.0362 | solubility (mole fraction) (in acetonitrile, 285.65 K): 0.039 | solubility (mole fraction) (in acetonitrile, 288.15 K): 0.0423 | solubility (mole fraction) (in acetonitrile, 290.65 K): 0.0456 | solubility (mole fraction) (in acetonitrile, 293.15 K): 0.0491 | solubility (mole fraction) (in acetonitrile, 295.65 K): 0.0528 | solubility (mole fraction) (in acetonitrile, 298.15 K): 0.0566 | solubility (mole fraction) (in acetonitrile, 300.65 K): 0.0607 | solubility (mole fraction) (in acetonitrile, 303.15 K): 0.0651 | solubility (mole fraction) (in acetonitrile, 305.65 K): 0.0699 | solubility (mole fraction) (in acetonitrile, 308.15 K): 0.0747 | solubility (mole fraction) (in acetonitrile, 310.65 K): 0.0797 | solubility (mole fraction) (in acetonitrile, 313.15 K): 0.0852 | solubility (mole fraction) (in cyclohexane, 283.15 K): 2.5e-05 | solubility (mole fraction) (in cyclohexane, 285.65 K): 2.87e-05 | solubility (mole fraction) (in cyclohexane, 288.15 K): 3.37e-05 | solubility (mole fraction) (in cyclohexane, 290.65 K): 3.87e-05 | solubility (mole fraction) (in cyclohexane, 293.15 K): 4.47e-05 | solubility (mole fraction) (in cyclohexane, 295.65 K): 5.27e-05 | solubility (mole fraction) (in cyclohexane, 298.15 K): 6.13e-05 | solubility (mole fraction) (in cyclohexane, 300.65 K): 6.99e-05 | solubility (mole fraction) (in cyclohexane, 303.15 K): 8.08e-05 | solubility (mole fraction) (in cyclohexane, 305.65 K): 9.26e-05 | solubility (mole fraction) (in cyclohexane, 308.15 K): 0.000108 | solubility (mole fraction) (in cyclohexane, 310.65 K): 0.000122 | solubility (mole fraction) (in cyclohexane, 313.15 K): 0.000139 | solubility (mole fraction) (in ethanol, 278.15 K): 0.00732 | solubility (mole fraction) (in ethanol, 280.65 K): 0.00807 | solubility (mole fraction) (in ethanol, 283.15 K): 0.00887 | solubility (mole fraction) (in ethanol, 285.65 K): 0.00974 | solubility (mole fraction) (in ethanol, 288.15 K): 0.0107 | solubility (mole fraction) (in ethanol, 290.65 K): 0.0117 | solubility (mole fraction) (in ethanol, 293.15 K): 0.0127 | solubility (mole fraction) (in ethanol, 295.65 K): 0.0139 | solubility (mole fraction) (in ethanol, 298.15 K): 0.0152 | solubility (mole fraction) (in ethanol, 300.65 K): 0.0165 | solubility (mole fraction) (in ethanol, 303.15 K): 0.018 | solubility (mole fraction) (in ethanol, 305.65 K): 0.0197 | solubility (mole fraction) (in ethanol, 308.15 K): 0.0213 | solubility (mole fraction) (in ethanol, 310.65 K): 0.0231 | solubility (mole fraction) (in ethanol, 313.15 K): 0.025 | solubility (mole fraction) (in ethyl acetate, 278.15 K): 0.062 | solubility (mole fraction) (in ethyl acetate, 280.65 K): 0.0669 | solubility (mole fraction) (in ethyl acetate, 283.15 K): 0.0722 | solubility (mole fraction) (in ethyl acetate, 285.65 K): 0.0776 | solubility (mole fraction) (in ethyl acetate, 288.15 K): 0.0837 | solubility (mole fraction) (in ethyl acetate, 290.65 K): 0.0897 | solubility (mole fraction) (in ethyl acetate, 293.15 K): 0.096 | solubility (mole fraction) (in ethyl acetate, 295.65 K): 0.103 | solubility (mole fraction) (in ethyl acetate, 298.15 K): 0.11 | solubility (mole fraction) (in ethyl acetate, 300.65 K): 0.117 | solubility (mole fraction) (in ethyl acetate, 303.15 K): 0.125 | solubility (mole fraction) (in ethyl acetate, 305.65 K): 0.133 | solubility (mole fraction) (in ethyl acetate, 308.15 K): 0.142 | solubility (mole fraction) (in ethyl acetate, 310.65 K): 0.151 | solubility (mole fraction) (in ethyl acetate, 313.15 K): 0.16 | solubility (mole fraction) (in isopropanol, 278.15 K): 0.00459 | solubility (mole fraction) (in isopropanol, 280.65 K): 0.00511 | solubility (mole fraction) (in isopropanol, 283.15 K): 0.00572 | solubility (mole fraction) (in isopropanol, 285.65 K): 0.00635 | solubility (mole fraction) (in isopropanol, 288.15 K): 0.00707 | solubility (mole fraction) (in isopropanol, 290.65 K): 0.00781 | solubility (mole fraction) (in isopropanol, 293.15 K): 0.00865 | solubility (mole fraction) (in isopropanol, 295.65 K): 0.00961 | solubility (mole fraction) (in isopropanol, 298.15 K): 0.0106 | solubility (mole fraction) (in isopropanol, 300.65 K): 0.0118 | solubility (mole fraction) (in isopropanol, 303.15 K): 0.0129 | solubility (mole fraction) (in isopropanol, 305.65 K): 0.0142 | solubility (mole fraction) (in isopropanol, 308.15 K): 0.0157 | solubility (mole fraction) (in isopropanol, 310.65 K): 0.0172 | solubility (mole fraction) (in isopropanol, 313.15 K): 0.0189 | solubility (mole fraction) (in methanol, 278.15 K): 0.00834 | solubility (mole fraction) (in methanol, 280.65 K): 0.00913 | solubility (mole fraction) (in methanol, 283.15 K): 0.0101 | solubility (mole fraction) (in methanol, 285.65 K): 0.0109 | solubility (mole fraction) (in methanol, 288.15 K): 0.0119 | solubility (mole fraction) (in methanol, 290.65 K): 0.0131 | solubility (mole fraction) (in methanol, 293.15 K): 0.0142 | solubility (mole fraction) (in methanol, 295.65 K): 0.0155 | solubility (mole fraction) (in methanol, 298.15 K): 0.0168 | solubility (mole fraction) (in methanol, 300.65 K): 0.018 | solubility (mole fraction) (in methanol, 303.15 K): 0.0198 | solubility (mole fraction) (in methanol, 305.65 K): 0.0213 | solubility (mole fraction) (in methanol, 308.15 K): 0.0231 | solubility (mole fraction) (in methanol, 310.65 K): 0.0249 | solubility (mole fraction) (in methanol, 313.15 K): 0.027 | solubility (mole fraction) (in n-butanol, 278.15 K): 0.00492 | solubility (mole fraction) (in n-butanol, 280.65 K): 0.00552 | solubility (mole fraction) (in n-butanol, 283.15 K): 0.00618 | solubility (mole fraction) (in n-butanol, 285.65 K): 0.00691 | solubility (mole fraction) (in n-butanol, 288.15 K): 0.00778 | solubility (mole fraction) (in n-butanol, 290.65 K): 0.00858 | solubility (mole fraction) (in n-butanol, 293.15 K): 0.00951 | solubility (mole fraction) (in n-butanol, 295.65 K): 0.0106 | solubility (mole fraction) (in n-butanol, 298.15 K): 0.0118 | solubility (mole fraction) (in n-butanol, 300.65 K): 0.0131 | solubility (mole fraction) (in n-butanol, 303.15 K): 0.0145 | solubility (mole fraction) (in n-butanol, 305.65 K): 0.016 | solubility (mole fraction) (in n-butanol, 308.15 K): 0.0177 | solubility (mole fraction) (in n-butanol, 310.65 K): 0.0196 | solubility (mole fraction) (in n-butanol, 313.15 K): 0.0216 | solubility (mole fraction) (in n-propanol, 278.15 K): 0.00631 | solubility (mole fraction) (in n-propanol, 280.65 K): 0.00701 | solubility (mole fraction) (in n-propanol, 283.15 K): 0.00776 | solubility (mole fraction) (in n-propanol, 285.65 K): 0.00853 | solubility (mole fraction) (in n-propanol, 288.15 K): 0.00939 | solubility (mole fraction) (in n-propanol, 290.65 K): 0.0103 | solubility (mole fraction) (in n-propanol, 293.15 K): 0.0113 | solubility (mole fraction) (in n-propanol, 295.65 K): 0.0124 | solubility (mole fraction) (in n-propanol, 298.15 K): 0.0136 | solubility (mole fraction) (in n-propanol, 300.65 K): 0.0148 | solubility (mole fraction) (in n-propanol, 303.15 K): 0.0162 | solubility (mole fraction) (in n-propanol, 305.65 K): 0.0176 | solubility (mole fraction) (in n-propanol, 308.15 K): 0.0192 | solubility (mole fraction) (in n-propanol, 310.65 K): 0.0209 | solubility (mole fraction) (in n-propanol, 313.15 K): 0.0227 | solubility (mole fraction) (in toluene, 278.15 K): 0.00159 | solubility (mole fraction) (in toluene, 280.65 K): 0.00178 | solubility (mole fraction) (in toluene, 283.15 K): 0.00204 | solubility (mole fraction) (in toluene, 285.65 K): 0.0023 | solubility (mole fraction) (in toluene, 288.15 K): 0.00258 | solubility (mole fraction) (in toluene, 290.65 K): 0.00285 | solubility (mole fraction) (in toluene, 293.15 K): 0.00317 | solubility (mole fraction) (in toluene, 295.65 K): 0.00353 | solubility (mole fraction) (in toluene, 298.15 K): 0.00391 | solubility (mole fraction) (in toluene, 300.65 K): 0.00439 | solubility (mole fraction) (in toluene, 303.15 K): 0.0048 | solubility (mole fraction) (in toluene, 305.65 K): 0.00527 | solubility (mole fraction) (in toluene, 308.15 K): 0.00584 | solubility (mole fraction) (in toluene, 310.65 K): 0.00645 | solubility (mole fraction) (in toluene, 313.15 K): 0.00714
